Experimental data taken from PubChem BioAssay AID330 (DTP/NCI, 2004).
Several values for one entry are separate records, joined by “and”; a condition that tells them apart may be missing. Equal entries are not always repeated. Toxic doses and inconclusive results are not listed. Rule for the calls: active = survival T/C of 150% or more; inactive = T/C below 125% in these data.

System: P388 leukemia ip, CD2F1 mice, survival T/C
Assay: NCI In Vivo Anticancer Drug Screen. Data for tumor model P388 Leukemia (intraperitoneal) in CD2F1 (CDF1) mice
Settings: endpoint: median survival time, higher = longer survival
Summary of the method: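 Mice carrying the transplanted tumor received test compound or vehicle. Survival was recorded in each group, and the value is the treated-group measurement divided by that of the vehicle-treated control group.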

[1] = dose: 50.0 mg/kg/injection, schedule: Q01DX009 (ip), vehicle: Klucel (hydroxypropylcellulose) (HPC)
[2] = dose: 100.0 mg/kg/injection, schedule: Q01DX009 (ip), vehicle: Klucel (hydroxypropylcellulose) (HPC)
[3] = dose: 200.0 mg/kg/injection, schedule: Q01DX009 (ip), vehicle: Klucel (hydroxypropylcellulose) (HPC)
[4] = dose: 6.25 mg/kg/injection, schedule: Q01DX009 (ip), vehicle: saline with Tween-80
[5] = dose: 25.0 mg/kg/injection, schedule: Q01DX009 (ip), vehicle: saline with Tween-80
[6] = dose: 50.0 mg/kg/injection, schedule: Q01DX009 (ip), vehicle: saline with Tween-80
[7] = dose: 100.0 mg/kg/injection, schedule: Q01DX009 (ip), vehicle: saline with Tween-80
[8] = dose: 200.0 mg/kg/injection, schedule: Q01DX009 (ip), vehicle: saline with Tween-80
[9] = dose: 400.0 mg/kg/injection, schedule: Q01DX009 (ip), vehicle: saline with Tween-80
[10] = dose: 12.5 mg/kg/injection, schedule: Q01DX005 (ip), vehicle: saline with Tween-80
[11] = dose: 25.0 mg/kg/injection, schedule: Q01DX005 (ip), vehicle: saline with Tween-80
[12] = dose: 50.0 mg/kg/injection, schedule: Q01DX005 (ip), vehicle: saline with Tween-80

Measured: T/C

O=C(NCc1ccncc1)Nc1ccc(Cc2ccc(NC(=O)NCc3ccncc3)cc2)cc1
inactive: [1] 105 % of control | [2] 102 % of control | [3] 103 % of control

CCCCNC(=S)N/N=C1/C=C2C=CC3C(CCC4(C)C(OC(C)=O)CCC34)C2(C)CC1 (stereo not drawn)
inactive: dose: 100.0 mg/kg/injection, schedule: Q01DX001 (ip), vehicle: saline 99 % of control | dose: 200.0 mg/kg/injection, schedule: Q01DX001 (ip), vehicle: saline 98 % of control | dose: 400.0 mg/kg/injection, schedule: Q01DX001 (ip), vehicle: saline 97 % of control

CSc1c(C(=O)O)cc(C(C)(C)C)cc1C(=O)O
inactive: [1] 91 % of control | [2] 100 % of control | [3] 91 % of control

COc1cc2c(cc1O)C1CC(CC3CCCCN31)OC(=O)/C=C\c1ccc(O)c-2c1 (stereo not drawn)
inactive: dose: 25.0 mg/kg/injection, schedule: Q04DX003 (ip), vehicle: saline 100 % of control | dose: 50.0 mg/kg/injection, schedule: Q04DX003 (ip), vehicle: saline 107 % of control and 109 % of control | dose: 100.0 mg/kg/injection, schedule: Q04DX003 (ip), vehicle: saline 102 % of control and 110 % of control and 121 % of control | dose: 200.0 mg/kg/injection, schedule: Q04DX003 (ip), vehicle: saline 100 % of control and 102 % of control and 105 % of control

COC1=CC(=O)C2CC=CC(CC(=O)O)C2(C)C1=O (stereo not drawn)
inactive: dose: 50.0 mg/kg/injection, schedule: Q01DX005 (ip), vehicle: Klucel (hydroxypropylcellulose) (HPC) 108 % of control | dose: 100.0 mg/kg/injection, schedule: Q01DX005 (ip), vehicle: Klucel (hydroxypropylcellulose) (HPC) 103 % of control

COc1ccc2c(c1OC)C(=O)O/C2=C\c1cc2c(cc1CCN(C)C)OCO2
inactive: dose: 12.5 mg/kg/injection, schedule: Q01DX001 (ip), vehicle: saline + alcohol 99 % of control | dose: 25.0 mg/kg/injection, schedule: Q01DX001 (ip), vehicle: saline + alcohol 98 % of control | dose: 50.0 mg/kg/injection, schedule: Q01DX001 (ip), vehicle: saline + alcohol 99 % of control

O=C(CBr)C(=O)OCc1ccccc1
inactive: dose: 0.78 mg/kg/injection, schedule: Q01DX009 (ip), vehicle: water 100 % of control | dose: 1.56 mg/kg/injection, schedule: Q01DX009 (ip), vehicle: water 99 % of control | dose: 3.13 mg/kg/injection, schedule: Q01DX009 (ip), vehicle: water 94 % of control | dose: 6.25 mg/kg/injection, schedule: Q01DX009 (ip), vehicle: water 102 % of control

COCc1cnc2nc(N)nc(N)c2n1
inactive: dose: 0.39 mg/kg/injection, schedule: Q01DX009 (ip), vehicle: distilled water + Tween-80 99 % of control | dose: 0.78 mg/kg/injection, schedule: Q01DX009 (ip), vehicle: distilled water + Tween-80 99 % of control | dose: 1.56 mg/kg/injection, schedule: Q01DX009 (ip), vehicle: distilled water + Tween-80 104 % of control | dose: 3.13 mg/kg/injection, schedule: Q01DX009 (ip), vehicle: distilled water + Tween-80 110 % of control

O=C(Nc1ccc(C2=NCCN2)cc1)c1ccc(C(=O)Nc2ccc(C3=NCCN3)cc2)cc1
inactive: dose: 75.0 mg/kg/injection, schedule: Q01DX010 (ip), vehicle: saline 118 % of control | dose: 112.0 mg/kg/injection, schedule: Q01DX010 (ip), vehicle: saline 100 % of control

O=C1O/C(=C2/OC(=O)c3ccccc32)c2ccccc21
inactive: dose: 3.13 mg/kg/injection, schedule: Q01DX009 (ip), vehicle: saline with Tween-80 94 % of control | [4] 100 % of control | dose: 12.5 mg/kg/injection, schedule: Q01DX009 (ip), vehicle: saline with Tween-80 100 % of control and 91 % of control | [5] 100 % of control | [6] 88 % of control | [7] 88 % of control | [8] 90 % of control | [9] 92 % of control

C=CCc1ccc(OCCN(CC)CC)c(OC)c1
inactive: [10] 117 % of control | [11] 113 % of control | [12] 98 % of control

CC(C)(C)c1cc2c(c(C(C)(C)C)c1)OP(F)(c1ccccc1)(c1ccccc1)N2
inactive: [6] 89 % of control | [7] 95 % of control | [8] 98 % of control

COc1c2c(c(Cc3c4c(c(OC)c5c3OCO5)OC(C)C4)c3c1OCO3)CC(C)O2 (stereo not drawn)
inactive: [10] 96 % of control | [11] 94 % of control | [12] 89 % of control and 95 % of control

COc1cccc(-c2c(C#N)c(=O)n(C)c3nncn23)c1
inactive: dose: 100.0 mg/kg/injection, schedule: Q01DX001 (ip), vehicle: saline with Tween-80 97 % of control | dose: 200.0 mg/kg/injection, schedule: Q01DX001 (ip), vehicle: saline with Tween-80 94 % of control | dose: 400.0 mg/kg/injection, schedule: Q01DX001 (ip), vehicle: saline with Tween-80 91 % of control

CN(c1ccccc1)c1c2c(oc(=O)c1Cl)-c1ccccc1SC2
inactive: [4] 91 % of control | [5] 93 % of control | [8] 93 % of control

C=C(C)n1c(=O)[nH]c2ccccc21
inactive: dose: 50.0 mg/kg/injection, schedule: Q01DX009 (ip), vehicle: saline 87 % of control | dose: 100.0 mg/kg/injection, schedule: Q01DX009 (ip), vehicle: saline 87 % of control | dose: 200.0 mg/kg/injection, schedule: Q01DX009 (ip), vehicle: saline 89 % of control

COc1ccc(C2C3=C(CC(C)(C)CC3=O)Oc3cc4c(cc32)OCO4)c(OC)c1 (stereo not drawn)
inactive: dose: 60.0 mg/kg/injection, schedule: Q01DX005 (ip), vehicle: saline with Tween-80 99 % of control | dose: 120.0 mg/kg/injection, schedule: Q01DX005 (ip), vehicle: saline with Tween-80 93 % of control | dose: 240.0 mg/kg/injection, schedule: Q01DX005 (ip), vehicle: saline with Tween-80 92 % of control

Cc1nn(-c2ccccc2)c(N)c1C#N
inactive: dose: 50.0 mg/kg/injection, schedule: Q04DX003 (ip), vehicle: Klucel (hydroxypropylcellulose) (HPC) 104 % of control | dose: 100.0 mg/kg/injection, schedule: Q04DX003 (ip), vehicle: Klucel (hydroxypropylcellulose) (HPC) 107 % of control | dose: 200.0 mg/kg/injection, schedule: Q04DX003 (ip), vehicle: Klucel (hydroxypropylcellulose) (HPC) 106 % of control | dose: 400.0 mg/kg/injection, schedule: Q04DX003 (ip), vehicle: Klucel (hydroxypropylcellulose) (HPC) 104 % of control

COC(=O)C(O)c1ccc2c(c1)OCO2 (stereo not drawn)
inactive: [7] 90 % of control | [8] 90 % of control | [9] 104 % of control

CCCCC/C(C=C(C#N)C#N)=C/c1ccccc1
inactive: [5] 103 % of control and 86 % of control | [6] 100 % of control and 123 % of control and 91 % of control | [7] 119 % of control and 92 % of control | [8] 111 % of control
